From patent US20250163043A1 (TRANSTHERA SCIENCES (NANJING), INC., priority 2021, published 2025)

Key:
CDK9/CycT1 = CDK9/CycT1 (Homo sapiens, UniProt P50750); experiment: ADP-Glo kinase assay on CDK enzymatic activity, CDK9/CycT1; format: biochemical; details: 10 concentrations from 10 μM, 4-fold, 60 min room temperature
Method in brief: (§1)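 Ten-point, 4-fold dilution series from 10 μM final was preincubated 10 min with kinase, then 60 min at room temperature with CDKtide substrate and ATP. ADP-Glo luminescence gave inhibition relative to 1 μM AZD4573 and 0.5% DMSO controls; IC50 from curve fitting.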

[1] = test system: MV-4-11 (human myelomonocytic leukemia cells); experiment: CCK-8 cell proliferation assay, MV-4-11; format: cell-based; details: MV4-11, 24 h incubation, 11 concentrations from 5000 nM, 3-fold, read-out: MV-4-11 cell proliferation IC50 (class)
Experimental: (§2) Test samples: the compounds of the present invention, having structures shown above.
MV-4-11 (human myelomonocytic leukemia cells) and NCI-H929 (human myeloma cells).
The compounds were dissolved in DMSO and diluted 3-fold in the 96-well plate to obtain stock solutions with 11 concentration gradients. Each cell was inoculated into a 96-well plate, and the diluted compound stock solution was added to the 96-well plate to obtain a series of 11 concentration gradients of compound solutions with final concentrations of 5000 nM starting and 3-fold gradient decreasing, wherein the final DMSO content was […]. There was a medium containing 1‰ DMSO in the negative control well. The treated cells were incubated at 37° C. with 5% CO2 and 95% humidity, wherein MV-4-11 were incubated for 24 h and NCI-H929 for 72 h. After incubation was completed, each well was added with 10 μL of CCK-8 reagent, incubated for 1-3 h at room temperature and placed in the microplate reader, and the absorbance was read at 450 nm.
(§3) The inhibition rate was calculated according to the following formula: […]
ODcmpd: compound absorbance; ODpositive: average value of the absorbance of positive control without compound; ODvehicle: average value of the absorbance of solvent vehicle control.
(§4) IC50 values were fitted using GraphPad 7.0 based on inhibition rates of compounds at different concentrations.

CDK1/CycE1 = CDK1/CycE1 (Homo sapiens, UniProt P06493); experiment: ADP-Glo kinase assay on CDK enzymatic activity, CDK1/CycE1; format: biochemical; details: ADP-Glo; 10 concentrations from 10 μM, 4-fold; 60 min room temperature; read-out: CDK1/CycE1/nM (IC50)
Sequence of CDK1/CycE1 (P06493 whole entry, species assumed): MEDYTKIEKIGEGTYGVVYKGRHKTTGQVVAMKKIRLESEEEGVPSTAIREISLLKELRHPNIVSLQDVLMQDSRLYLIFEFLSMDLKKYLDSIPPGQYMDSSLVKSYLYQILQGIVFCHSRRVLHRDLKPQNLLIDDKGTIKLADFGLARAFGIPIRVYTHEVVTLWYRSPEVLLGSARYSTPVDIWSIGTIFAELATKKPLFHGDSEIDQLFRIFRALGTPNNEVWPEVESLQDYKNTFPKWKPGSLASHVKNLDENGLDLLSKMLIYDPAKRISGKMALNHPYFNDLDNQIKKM
Sequence of CDK1/CycE1 (P24864 whole entry partner, species assumed): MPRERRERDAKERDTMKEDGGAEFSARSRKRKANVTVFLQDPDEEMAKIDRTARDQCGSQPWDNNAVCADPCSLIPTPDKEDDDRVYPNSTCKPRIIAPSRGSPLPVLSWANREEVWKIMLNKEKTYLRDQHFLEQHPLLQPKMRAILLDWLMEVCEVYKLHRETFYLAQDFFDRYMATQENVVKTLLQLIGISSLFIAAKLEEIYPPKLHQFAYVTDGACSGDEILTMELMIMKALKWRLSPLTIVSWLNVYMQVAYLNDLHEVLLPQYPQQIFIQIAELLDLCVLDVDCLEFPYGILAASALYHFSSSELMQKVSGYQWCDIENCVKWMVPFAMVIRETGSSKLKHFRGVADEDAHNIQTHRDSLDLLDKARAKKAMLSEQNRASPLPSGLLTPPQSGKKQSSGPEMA
Method in brief: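 Compounds in 10-point 4-fold dilutions from 10 μM final, preincubated 10 min with kinase, then substrate/ATP added; 60 min reaction at room temperature. ADP-Glo luminescence read.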

CDK2/CycA2 = CDK2/CycA2 (Homo sapiens, UniProt P24941); experiment: ADP-Glo kinase assay on CDK enzymatic activity, CDK2/CycA2; format: biochemical; details: 10 concentrations from 10 μM, 4-fold, 60 min room temperature
Method in brief: as §1

CDK3/CycE1 = CDK3/CycE1 (Homo sapiens, UniProt Q00526); experiment: ADP-Glo kinase assay on CDK enzymatic activity, CDK3/CycE1; format: biochemical; details: 10 concentrations from 10 μM, 4-fold, 60 min room temperature
Sequence of CDK3/CycE1 (Q00526 whole entry, species assumed): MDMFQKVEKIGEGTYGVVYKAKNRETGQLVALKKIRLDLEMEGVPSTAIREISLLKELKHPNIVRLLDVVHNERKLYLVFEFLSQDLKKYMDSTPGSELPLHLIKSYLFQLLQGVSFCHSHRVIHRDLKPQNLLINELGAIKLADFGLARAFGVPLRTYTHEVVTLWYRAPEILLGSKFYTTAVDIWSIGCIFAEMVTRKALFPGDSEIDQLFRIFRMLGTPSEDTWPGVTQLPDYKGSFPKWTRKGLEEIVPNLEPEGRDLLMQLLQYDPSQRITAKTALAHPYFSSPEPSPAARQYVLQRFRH
Sequence of CDK3/CycE1 (P24864 whole entry partner, species assumed): as the sequence (P24864 whole entry partner, species assumed) above
From the text: as §2
(§5) ADP-Glo Kinase Assay (ADP-Glo kinase kit), DMSO (dimethyl sulfoxide), CDK9/CycT1 (cyclin-dependent kinase 9/cyclin T1), CDK tide (cyclin-dependent kinase substrate peptide fragments), CDK1/CycE1 (cyclin-dependent kinase 1/cyclin E1), CDK2/CycA2 (cyclin-dependent kinase 2/cyclin A2), CDK3/CycE1 (cyclin-dependent kinase 3/cyclin E1), CDK4/CycD3 (cyclin-dependent kinase 4/cyclin D3), CDK5/p25NCK (cyclin-dependent kinase 5/p25), and AZD 4573.
(§6) A 384-well white plate, a 96-well plate, a microplate oscillator, a centrifuge, and a microplate reader.
(§7) The compounds were dissolved in DMSO and diluted 4-fold in the 96-well plate to obtain stock solutions with 10 concentration gradients, and added into a 384-well plate system to obtain a series of 10 concentration gradients of compound solutions with final concentrations of 10 μM starting and 4-fold gradient decreasing. 1 μM AZD4573 was used as compound positive control (PC) and 0.5% DMSO as solvent vehicle control (VC), ten duplicated wells each for PC and VC.
(§8) 1 μL of compound solution and 2 μL of 2× kinase solution were transferred to each well, and the plate was centrifuged at 1000 g for 30 s and left at room temperature for 10 min. A mixture of 2× substrate and ATP was prepared in 1× kinase buffer. The reaction was started after adding 2 μL of substrate and ATP into the plate. The plate was centrifuged at 1000 g for 30 s. The assay plate was closed and left at room temperature for 60 min. The reaction system was added with 4 μL of ADP Glo reagent, centrifuged at 1000 rpm for 1 min, and incubated at room temperature for 40 min. The reaction system was added with 8 μL of kinase assay reagent, centrifuged at 1000 rpm for 1 min and incubated at room temperature for 40 min. The […] was read on Biotek.
as §3
(§9) Lumcmpd: compound fluorescence reading; Lumpositive: average value of the fluorescence reading of positive compound control; Lumvehicle: average value of the fluorescence reading of solvent vehicle control.
as §4

CDK5/p25NCK = CDK5/p25NCK (Homo sapiens, UniProt Q00535); experiment: ADP-Glo kinase assay on CDK enzymatic activity, CDK5/p25NCK; format: biochemical; details: 10 concentrations from 10 μM, 4-fold, 60 min room temperature
Sequence of CDK5/p25NCK (Q00535 whole entry, species assumed): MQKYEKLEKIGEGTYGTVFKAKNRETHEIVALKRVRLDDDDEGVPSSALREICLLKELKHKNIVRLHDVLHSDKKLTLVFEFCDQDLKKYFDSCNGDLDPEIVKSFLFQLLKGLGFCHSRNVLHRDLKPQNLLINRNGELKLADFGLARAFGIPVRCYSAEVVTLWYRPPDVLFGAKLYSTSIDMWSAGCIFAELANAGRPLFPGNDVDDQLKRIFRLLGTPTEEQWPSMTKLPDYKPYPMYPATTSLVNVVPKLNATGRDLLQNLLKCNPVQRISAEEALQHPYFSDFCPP
Sequence of CDK5/p25NCK (Q15078 99-307 partner limits assumed, species assumed): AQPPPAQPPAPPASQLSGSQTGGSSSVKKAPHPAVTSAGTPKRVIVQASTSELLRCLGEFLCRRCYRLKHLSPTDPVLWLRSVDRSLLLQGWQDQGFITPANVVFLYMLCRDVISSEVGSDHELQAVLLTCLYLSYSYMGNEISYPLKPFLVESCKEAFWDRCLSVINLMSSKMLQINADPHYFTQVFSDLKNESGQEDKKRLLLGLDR
From the text: as §2, §5, §6, §7, §8, §3, §9, §4

Sequence of CDK9/CycT1 (P50750 whole entry): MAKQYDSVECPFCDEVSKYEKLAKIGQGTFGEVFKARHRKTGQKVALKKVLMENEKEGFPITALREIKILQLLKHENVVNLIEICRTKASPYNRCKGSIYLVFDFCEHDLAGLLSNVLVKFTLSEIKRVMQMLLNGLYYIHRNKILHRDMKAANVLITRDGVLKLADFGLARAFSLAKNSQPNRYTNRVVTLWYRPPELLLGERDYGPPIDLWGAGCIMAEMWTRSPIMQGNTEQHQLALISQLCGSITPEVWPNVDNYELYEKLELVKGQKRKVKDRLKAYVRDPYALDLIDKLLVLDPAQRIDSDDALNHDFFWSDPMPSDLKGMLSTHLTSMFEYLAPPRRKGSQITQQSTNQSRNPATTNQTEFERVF
Sequence of CDK9/CycT1 (O60563 whole entry partner): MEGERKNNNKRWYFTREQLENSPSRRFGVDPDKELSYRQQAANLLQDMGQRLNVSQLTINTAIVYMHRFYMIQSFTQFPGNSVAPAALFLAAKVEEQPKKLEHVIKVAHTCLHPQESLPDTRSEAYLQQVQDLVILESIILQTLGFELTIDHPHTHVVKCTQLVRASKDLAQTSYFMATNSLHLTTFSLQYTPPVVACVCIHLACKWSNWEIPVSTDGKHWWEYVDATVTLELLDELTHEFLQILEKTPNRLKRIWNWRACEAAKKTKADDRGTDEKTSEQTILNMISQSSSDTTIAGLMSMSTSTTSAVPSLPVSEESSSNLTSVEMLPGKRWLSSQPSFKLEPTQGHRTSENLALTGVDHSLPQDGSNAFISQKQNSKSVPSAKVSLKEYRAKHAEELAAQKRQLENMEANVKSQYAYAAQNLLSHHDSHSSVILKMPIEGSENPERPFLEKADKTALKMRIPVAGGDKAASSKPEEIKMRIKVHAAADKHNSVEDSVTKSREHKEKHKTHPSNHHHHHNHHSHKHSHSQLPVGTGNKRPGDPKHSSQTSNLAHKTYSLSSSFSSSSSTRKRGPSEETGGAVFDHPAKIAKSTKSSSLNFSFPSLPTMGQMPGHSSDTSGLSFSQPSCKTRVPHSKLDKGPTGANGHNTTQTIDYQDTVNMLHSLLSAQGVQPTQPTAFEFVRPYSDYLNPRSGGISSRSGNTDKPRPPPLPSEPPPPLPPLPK

SMILES | IC50 (CDK9/CycT1) [nM] | IC50 [1] [nM] | IC50 (CDK1/CycE1) [nM] | IC50 (CDK2/CycA2) [nM] | IC50 (CDK3/CycE1) [nM] | IC50 (CDK5/p25NCK) [nM]
CC(C)Nc1nc(C#N)cc2cnc(N[C@@H]3CCNC3)nc12 [Compound 113, (R)-8-(isopropylamino)-2-(pyrrolidin-3-ylamino)pyrido[3,4-d]pyrimidine-6-carbonitrile] | 9 | 400 to 1000 | – | – | – | –
CC(C)Nc1nc(C#N)cc2cnc(N[C@H]3CC[C@@H](N)CC3)nc12 [Compound 137, 2-(((1s,4s)-4-aminocyclohexyl)amino)-8-(isopropylamino)pyrido[3,4-d]pyrimidine-6-carbonitrile] | 10 | > 1000 | – | – | – | –
CC(=O)N[C@@H]1CCC[C@H](C(=O)Nc2ncc3cc(C)nc(NC(C)C)c3n2)C1 [Compound 8, (1S,3R)-3-acetamido-N-(8-(isopropylamino)-6-methylpyrido[3,4-d]pyrimidin-2-yl)cyclohexane-1-carboxamide] | – | > 1000 | – | – | – | –
CC(C)Nc1nc(C#N)cc2cnc(N[C@H]3CCNC3)nc12 [Compound 112, (S)-8-(isopropylamino)-2-(pyrrolidin-3-ylamino)pyrido[3,4-d]pyrimidine-6-carbonitrile] | 17 | 400 to 1000 | – | – | – | –
CCc1cc2cnc(NC(=O)[C@H]3CCC[C@@H](NC(C)=O)C3)nc2c(NC(C)C)n1 [Compound 9, (1S,3R)-3-acetamido-N-(6-ethyl-8-(isopropylamino)pyrido[3,4-d]pyrimidin-2-yl)cyclohexane-1-carboxamide] | – | > 1000 | – | – | – | –
CNc1cc2cnc(NC(=O)[C@H]3CCC[C@@H](NC(C)=O)C3)nc2c(NC(C)C)n1 [Compound 11, (1S,3R)-3-acetamido-N-(8-(isopropylamino)-6-(methylamino)pyrido[3,4-d]pyrimidin-2-yl)cyclohexane-1-carboxamide] | – | > 1000 | – | – | – | –
CC(=O)N[C@@H]1CCC[C@H](C(=O)Nc2cc3c(N4CCOCC4)nc(C#N)cc3cn2)C1 [Compound 21, (1S,3R)-3-acetamido-N-(7-cyano-5-morpholino-2,6-naphthyridin-3-yl)cyclohexane-1-carboxamide] | – | > 1000 | – | – | – | –
CC(=O)N[C@@H]1CCC[C@H](C(=O)Nc2ncc3cc(C#N)nc(NC(C)C)c3n2)C1 [Compound 3, (1S,3R)-3-acetamido-N-(6-cyano-8-(isopropylamino)pyrido[3,4-d]pyrimidin-2-yl)cyclohexane-1-carboxamide] | – | > 1000 | – | – | – | –
CC(=O)N[C@@H]1CCC[C@H](C(=O)Nc2ncc3cc(S(C)(=O)=O)nc(NC(C)C)c3n2)C1 [Compound 5, (1S,3R)-3-acetamido-N-(8-(isopropylamino)-6-(methylsulfonyl)pyrido[3,4-d]pyrimidin-2-yl)cyclohexane-1-carboxamide] | – | > 1000 | – | – | – | –
COc1cc2cnc(NC(=O)[C@H]3CCC[C@@H](NC(C)=O)C3)nc2c(NC(C)C)n1 [Compound 12, (1S,3R)-3-acetamido-N-(8-(isopropylamino)-6-methoxypyrido[3,4-d]pyrimidin-2-yl)cyclohexane-1-carboxamide] | – | > 1000 | – | – | – | –
CC(=O)N1CCC[C@H](C(=O)Nc2ncc3cc(C#N)nc(NC(C)C)c3n2)C1 [Compound 6, (S)-1-acetyl-N-(6-cyano-8-(isopropylamino)pyrido[3,4-d]pyrimidin-2-yl)piperidine-3-carboxamide] | – | > 1000 | – | – | – | –
CC(C)Cc1nc(C#N)cc2cnc(N[C@H]3CCCNC3)cc12 [Compound 108, (S)-1-isobutyl-7-(piperidin-3-ylamino)-2,6-naphthyridine-3-carbonitrile] | – | 400 to 1000 | – | – | – | –
CC(C)Nc1nc(C#N)cc2cnc(N[C@H]3CCC[C@@H](N)C3)cc12 [Compound 40, 7-(((1S,3R)-3-aminocyclohexyl)amino)-1-(isopropylamino)-2,6-naphthyridine-3-carbonitrile] | – | 400 to 1000 | – | – | – | –
CC(C)Nc1nc(C#N)cc2cnc(NC3CC4(CNC4)C3)nc12 [Compound 130, 2-((2-azaspiro[3.3]heptan-6-yl)amino)-8-(isopropylamino)pyrido[3,4-d]pyrimidine-6-carbonitrile] | 2 | – | 25 | 74 | 32 | 447
CC(C)Nc1nc(C#N)cc2cnc(N[C@H]3C[C@H](N)C3)nc12 [Compound 127, 2-(((1r,3r)-3-aminocyclobutyl)amino)-8-(isopropylamino)pyrido[3,4-d]pyrimidine-6-carbonitrile] | 1 | – | 10 | 14 | 8 | 46

More lines, now with the values ahead:

IC50 (CDK9/CycT1) [nM] | IC50 [1] [nM] | IC50 (CDK1/CycE1) [nM] | IC50 (CDK2/CycA2) [nM] | IC50 (CDK3/CycE1) [nM] | IC50 (CDK5/p25NCK) [nM] | SMILES
12 | > 1000 | – | – | – | – | CC(C)Nc1nc(C#N)cc2cnc(NC3CCCCC3O)cc12 (centres unmarked) [Compound 143, 7-((2-hydroxycyclohexyl)amino)-1-(isopropylamino)-2,6-naphthyridine-3-carbonitrile]
2 | – | 903 | 1010 | 1410 | 523 | CC1(Oc2nc(C#N)cc3cnc(N[C@H]4CCCNC4)cc23)CC1 [Compound 204, (S)-1-(1-methylcyclopropoxy)-7-(piperidin-3-amino)-2,6-naphthyridine-3-carbonitrile]
– | > 1000 | – | – | – | – | Cc1nc(C#N)cc2cnc(N[C@H]3CCCNC3)cc12 [Compound 196, (S)-1-methyl-7-(piperidin-3-ylamino)-2,6-naphthyridine-3-carbonitrile]
6 | – | 467 | 1310 | 340 | 7980 | CC(C)Nc1nc(C#N)cc2cnc(N[C@@H]3CN4CCC3CC4)nc12 [Compound C45, (S)-8-(isopropylamino)-2-(quinuclidin-3-ylamino)pyrido[3,4-d]pyrimidine-6-carbonitrile]
4 | – | 521 | 337 | 398 | 168 | FC(F)c1cc2cnc(N[C@H]3CCCNC3)cc2c(O[C@@H]2CCOC2)n1 [Compound 202, 7-(difluoromethyl)-N—((S)-piperidin-3-yl)-5-(((R)-tetrahydrofuran-3-yl)oxy)-2,6-naphthyridin-3-amine]
2 | – | 608 | 450 | 281 | 1460 | N#Cc1cc2cnc(N[C@H]3CCCNC3)cc2c(N[C@@H]2CCOC2)n1 [Compound 150, 7-(((S)-piperidin-3-yl)amino)-1-(((R)-tetrahydrofuran-3-yl)amino)-2,6-naphthyridine-3-carbonitrile]
2 | – | 215 | 83 | 189 | 53 | FC(F)c1cc2cnc(N[C@H]3CCCNC3)cc2c(N[C@@H]2CCOC2)n1 [Compound 201, 3-(difluoromethyl)-N7—((S)-piperidin-3-yl)-N^1—((R)-tetrahydrofuran-3-yl)-2,6-naphthyridine-1,7-diamine]
2 | – | 133 | 562 | 67 | 706 | CC(C)Oc1nc(C#N)cc2cnc(N[C@H]3CCCNC3)cc12 [Compound 153, (S)-1-(isopropoxy)-7-(piperidin-3-ylamino)-2,6-naphthyridine-3-carbonitrile]
